In ChEMBL document CHEMBL1697731, “Cheminformatics analysis of assertions mined from literature that describe drug-induced liver injury in different species” (Chem Res Toxicol, 2010) one finds Hepatotoxicity data, which are given here for 23 compounds.

For series [1], the system named is Hepatotoxicity. The series is described as follows: Literature-mined compound from Fourches et al multi-species drug-induced liver injury (DILI) dataset, effect in humans. To be noted: human.
Series [2] deals with Hepatotoxicity. The series is described as follows: Literature-mined compound from Fourches et al multi-species drug-induced liver injury (DILI) dataset, effect in rodents. As to conditions: rodentia.
In series [3] the test system is Hepatotoxicity. The series can be described thus: Literature-mined compound from Fourches et al multi-species drug-induced liver injury (DILI) dataset, effect in non-rodents.

For `C[C@H]1O[C@@H](O[C@H]2[C@@H](O)C[C@H](O[C@H]3[C@@H](O)C[C@H](O[C@H]4CC[C@@]5(C)[C@H](CC[C@@H]6[C@@H]5CC[C@]5(C)[C@@H](C7=CC(=O)OC7)CC[C@]65O)C4)O[C@@H]3C)O[C@@H]2C)C[C@H](O)[C@@H]1O` [DIGITOXIN], the results for the Hepatotoxicity result with Hepatotoxicity [1], in the series on Hepatotoxicity [2] and in the series on Hepatotoxicity [3] were “no drug-induced liver injury reported”, “drug-induced liver injury reported” and “no drug-induced liver injury reported”, respectively.
On to `CO[C@]12C[C@@H](COC(=O)c3cncc(Br)c3)CN(C)[C@@H]1Cc1cn(C)c3cccc2c13` [NICERGOLINE], for which the values for the Hepatotoxicity result with Hepatotoxicity [1], in the series on Hepatotoxicity [2] and in the series with Hepatotoxicity [3] were “no drug-induced liver injury reported”, “drug-induced liver injury reported” and “no drug-induced liver injury reported”, respectively.
As for `N=C(N)NC(=O)c1nc(Cl)c(N)nc1N` [AMILORIDE], the Hepatotoxicity result with Hepatotoxicity [1] is recorded as “drug-induced liver injury reported”; in the series on Hepatotoxicity [2], “drug-induced liver injury reported”; in the series on Hepatotoxicity [3], “no drug-induced liver injury reported”.
Take `CN1[C@@H]2CC[C@H]1C[C@@H](OC(=O)C(CO)c1ccccc1)C2` (mixture of isomers) [ATROPINE]: the figures for the Hepatotoxicity entry with Hepatotoxicity [1] (Liver), with Hepatotoxicity [2] (Liver) and with Hepatotoxicity [3] (Liver) were “no drug-induced liver injury reported”, “drug-induced liver injury reported” and “no drug-induced liver injury reported”, respectively.
With `CO[C@H]1C[C@H](O[C@H]2[C@H](C)[C@@H](O[C@@H]3O[C@H](C)C[C@H](N(C)C)[C@H]3OC(C)=O)[C@@H](C)C[C@@]3(CO3)C(=O)[C@H](C)[C@@H](OC(C)=O)[C@@H](C)[C@@H](C)OC(=O)[C@@H]2C)O[C@@H](C)[C@@H]1OC(C)=O` [TROLEANDOMYCIN], the Hepatotoxicity entry in the series with Hepatotoxicity [1], with Hepatotoxicity [2] and with Hepatotoxicity [3] was “drug-induced liver injury reported” each time.
`CN(CC(=O)O)C(=N)N` [CREATINE]: the results for the Hepatotoxicity entry in the series on Hepatotoxicity [1], with Hepatotoxicity [2] and in the series with Hepatotoxicity [3] were “no drug-induced liver injury reported”, “drug-induced liver injury reported” and “no drug-induced liver injury reported”, respectively.
`O=C1OCCN1/N=C/c1ccc([N+](=O)[O-])o1` [FURAZOLIDONE]: the values for the Hepatotoxicity result with Hepatotoxicity [1], with Hepatotoxicity [2] and with Hepatotoxicity [3] were “no drug-induced liver injury reported”, “drug-induced liver injury reported” and “no drug-induced liver injury reported”, respectively.
As to `COc1ncnc(NS(=O)(=O)c2ccc(N)cc2)c1OC` [SULFADOXINE], the values for the Hepatotoxicity result in the series on Hepatotoxicity [1], in the series with Hepatotoxicity [2] and in the series on Hepatotoxicity [3] were “no drug-induced liver injury reported”, “no drug-induced liver injury reported” and “drug-induced liver injury reported”, respectively.
In the case of `CC(C)(O)c1ccccc1CC[C@@H](SCC1(CC(=O)O)CC1)c1cccc(/C=C/c2ccc3ccc(Cl)cc3n2)c1` [MONTELUKAST], the results for the Hepatotoxicity entry with Hepatotoxicity [1], in the series with Hepatotoxicity [2] and with Hepatotoxicity [3] were “drug-induced liver injury reported”, “no drug-induced liver injury reported” and “no drug-induced liver injury reported”, respectively.
Regarding `N[C@@H](C(=O)N[C@@H]1C(=O)N2C(C(=O)O)=C(Cl)CS[C@H]12)c1ccccc1` [CEFACLOR ANHYDROUS], the Hepatotoxicity entry in the series on Hepatotoxicity [1] was “drug-induced liver injury reported”; with Hepatotoxicity [2], “no drug-induced liver injury reported”; with Hepatotoxicity [3], “no drug-induced liver injury reported”.
On to `Nc1ccc(S(=O)(=O)Nc2ccnn2-c2ccccc2)cc1` [SULFAPHENAZOLE], for which the figures for the Hepatotoxicity entry in the series on Hepatotoxicity [1], in the series with Hepatotoxicity [2] and in the series on Hepatotoxicity [3] were “drug-induced liver injury reported”, “drug-induced liver injury reported” and “no drug-induced liver injury reported”, respectively.
Turning to `NC(=O)OCC(COC(N)=O)c1ccccc1` [FELBAMATE], the Hepatotoxicity result is reported as “drug-induced liver injury reported” in the series on Hepatotoxicity [1], “drug-induced liver injury reported” in the series with Hepatotoxicity [2] and “no drug-induced liver injury reported” in the series on Hepatotoxicity [3].
With `C[C@]12CC[C@@H]3c4ccc(O)cc4CC[C@H]3[C@@H]1C[C@@H](O)[C@@H]2O` [ESTRIOL], the Hepatotoxicity entry in the series with Hepatotoxicity [1] is “no drug-induced liver injury reported”; in the series with Hepatotoxicity [2] it was “drug-induced liver injury reported”; in the series with Hepatotoxicity [3], “no drug-induced liver injury reported”.
For `CC(S)C(=O)NCC(=O)O` (centres undefined) [TIOPRONIN], the Hepatotoxicity result in the series on Hepatotoxicity [1] is recorded as “drug-induced liver injury reported”; in the series on Hepatotoxicity [2] it was “drug-induced liver injury reported”; in the series with Hepatotoxicity [3], “no drug-induced liver injury reported”.
Consider `Nc1nc(Cl)nc2c1ncn2[C@@H]1O[C@H](CO)[C@@H](O)[C@@H]1F` [CLOFARABINE], for which the Hepatotoxicity entry is on record as “drug-induced liver injury reported” in the series with Hepatotoxicity [1], “no drug-induced liver injury reported” in the series on Hepatotoxicity [2] and “no drug-induced liver injury reported” in the series on Hepatotoxicity [3].
Regarding `NC(=O)N/N=C/c1ccc([N+](=O)[O-])o1` [NITROFURAZONE], the Hepatotoxicity result is “no drug-induced liver injury reported” with Hepatotoxicity [1], “drug-induced liver injury reported” in the series on Hepatotoxicity [2] and “no drug-induced liver injury reported” in the series on Hepatotoxicity [3].
For the compound `O=C(O)c1cccnc1Nc1cccc(C(F)(F)F)c1` [NIFLUMIC ACID], the Hepatotoxicity result in the series with Hepatotoxicity [1] is on record as “no drug-induced liver injury reported”; in the series with Hepatotoxicity [2], “drug-induced liver injury reported”; with Hepatotoxicity [3], “no drug-induced liver injury reported”.
Turning to GADOBENATE DIMEGLUMINE, the Hepatotoxicity result with Hepatotoxicity [1] is given as “drug-induced liver injury reported”; with Hepatotoxicity [2], “no drug-induced liver injury reported”; with Hepatotoxicity [3], “no drug-induced liver injury reported”.
Take `COc1ccc2c3c1O[C@H]1[C@@H](O)C=C[C@H]4[C@@H](C2)N(C)CC[C@@]341` [CODEINE]: the values for the Hepatotoxicity entry with Hepatotoxicity [1] (Liver), with Hepatotoxicity [2] (Liver) and with Hepatotoxicity [3] (Liver) were “drug-induced liver injury reported”, “drug-induced liver injury reported” and “no drug-induced liver injury reported”, respectively.
Regarding `CC(=O)OCC1=C(C(=O)O)N2C(=O)[C@@H](NC(=O)Cc3cccs3)[C@H]2SC1` [CEPHALOTHIN], the values for the Hepatotoxicity result in the series on Hepatotoxicity [1], with Hepatotoxicity [2] and in the series on Hepatotoxicity [3] were “drug-induced liver injury reported”, “no drug-induced liver injury reported” and “no drug-induced liver injury reported”, respectively.
As to `CC(C)(C)C(=O)OCOP(=O)(COCCn1cnc2c(N)ncnc21)OCOC(=O)C(C)(C)C` [ADEFOVIR DIPIVOXIL], the Hepatotoxicity entry is listed as “drug-induced liver injury reported” in the series with Hepatotoxicity [1], “drug-induced liver injury reported” in the series with Hepatotoxicity [2] and “no drug-induced liver injury reported” with Hepatotoxicity [3].
As to `CN1C(C(=O)Nc2ccccn2)=C(O)c2sccc2S1(=O)=O` [TENOXICAM], the Hepatotoxicity result in the series on Hepatotoxicity [1] (Liver) was “drug-induced liver injury reported”; in the series on Hepatotoxicity [2] (Liver) it was “no drug-induced liver injury reported”; with Hepatotoxicity [3] (Liver) it was “no drug-induced liver injury reported”.
On to `Nc1nc2c(ncn2CCC(CO)CO)c(=O)[nH]1` [PENCICLOVIR], for which the Hepatotoxicity entry in the series with Hepatotoxicity [1] is “drug-induced liver injury reported”; in the series on Hepatotoxicity [2], “no drug-induced liver injury reported”; in the series with Hepatotoxicity [3] it was “no drug-induced liver injury reported”.
